Columns and labels:
Type in all cases: cell-based, murine
[1] = test system: parental ES cell line (D3 ES cells); assay: Self-renewal, differentiation and growth of ES cells in serum- and feeder-free culture with LIF and MAP kinase inhibitors
Protocol: (§1) FIG. 5A-5C. Effect of MAPK inhibitors on ES cell self-renewal. (A) Phase contrast image of parental ES cells cultured for 8 days (left), Bcl-2 ES cells cultured for 14 days (middle), and parental ES cells cultured with PD98059 for 14 days (right) in serum- and feeder-free conditions. (B) Growth curve of Bcl-2 ES cells (square) and parental ES cells cultured with 12.5 μM of PD98059 (circle) in serum- and feeder-free conditions. (C) Colony formation activity of parental (p) ES cells cultured without (Non) or with PD98059, and Bcl-2 ES cells at low cell density. Cultures were initiated with 200 cells per well (12 well-plate) and colonies were enumerated 7 days later.
(§2) Cell culture. D3 ES cells (Doetschman et al. (1985) J. Embryol. Exp. Morphol. 87:27-45) were maintained as previously described (Yamane et al. (1997) Blood 90:3516-3523), and clones expressing human Bcl-2 were established by co-transfecting parental D3 ES cells with the human Bcl2-IRES-EGFP transgene under control of the CAG promoter, and a puromycin resistance gene cassette. Bcl-2 ES cell clones were selected and expanded in the presence of puromycin. For serum-free cultures, ES cells are maintained in X-VIVO 15 (Cambrex) supplemented with 2 mM GlutaMax-1 (Gibco), 0.1 mM 2-mercaptoethanol, 1,000 U/mL ESGRO (Chemicon International), 100 U/mL penicillin (Gibco), and […] streptomycin (Gibco) on gelatin-coated dishes. Alternatively, IMDM/F12 (1:1) (Gibco) supplemented with 2 mM GlutaMax-1, 0.1 mM 2-mercaptoethanol, 0.1% polyvinyl alcohol (Sigma), 1× Insulin-Transferin-Selenium-X (Gibco), 1,000 U/mL ESGRO, 100 U/mL penicillin, and 100 mg streptomycin was used where indicated. Cells were dissociated with Cell Dissociation Buffer (Enzyme-Free, Hanks'-based, Gibco).
MAP kinase inhibitors. 1 μM SB203580 (Calbiochem) and 12.5 μM PD98059 (Calbiochem) were used as described (Qi et al. (2004) Proc. Natl. Acad. Sci USA 101, 6027-6032; Burdon et al. (1999) Dev. Biol. 210, 30-43).

parental ES cells = assay: Colony formation activity at low cell density in serum- and feeder-free conditions; conditions: 200 cells per well (12 well-plate), colonies enumerated 7 days later (FIG. 5C)
Protocol: as §1
as §2, with “Alternatively, IMDM/F12 (1:1) (Gibco) supplemented with 2 mM GlutaMax-1, 0.1 mM 2-mercaptoethanol, 0.1% polyvinyl alcohol (Sigma), 1× Insulin-Transferin-Selenium-X (Gibco), 1,000 U/mL ESGRO, 100 U/mL penicillin, and 100 mg streptomycin was used where indicated. Cells were dissociated with Cell Dissociation Buffer (Enzyme-Free, Hanks'-based, Gibco).” left out

[2] = test system: Bcl-2, Bcl-xL, Mcl-1, Bax; assay: Western blot analysis of Bcl-2 family members after BMP stimulation; conditions: parental ES cells, serum- and feeder-free, treated with BMP4 for 6 hours (FIG. 4B)
Protocol: FIG. 4A-4B. Western blot analysis for Smad proteins and Bcl-2 family members. (A) Cell lysates of parental cells cultured in conventional conditions with serum [p(serum)], a Bcl-2 clone in serum and feeder-free conditions untreated (Bcl-2), or treated with BMP4 for 90 minutes (Bcl-2+BMP4) were analyzed for the presence of phospho-Smad1/5/8 by western blotting (upper panel). The same membrane was stripped and reprobed with anti-actin antibody (lower panel). The band denoted by an asterisk is a product of non-specific staining. (B) Western blot analysis of Bcl-2 family members was performed for parental ES cells in conventional conditions with serum (serum), and for parental ES cells in serum- and feeder-free conditions without (Non) or treated with BMP4 for 6 hours (BMP4).
Western blots. Cells were lysed in 50 mM Tris-Cl (pH7.5)/150 mM NaCl/1% Triton-X/1% protease inhibitor cocktail set III (Calbiochem)/1 mM EDTA/1 mM Na3Vo4/1 mM NaF and proteins were separated by SDS-PAGE under denaturing conditions and transferred to Immobilon-P membrane (Miilipore). After blocking with 5% milk, the membrane was incubated with primary antibodies against phospho-Smad1/5/8 (Cell Signaling Technology), actin (Sigma), Bcl-2 (Dako), Bcl-xL (BD Bioscience), Mcl-1 (ABGENT), or Bax (BD Bioscience), washed, and then incubated with HRP-conjugated secondary antibodies. […]

[3] = test system: parental cell line (D3 ES cells); assay: Viability of the parental cell line in serum- and feeder-free conditions with BMP; conditions: addition of BMP
Description: as §2

Molecule: C[S+]([O-])c1ccc(-c2nc(-c3ccncc3)c(-c3ccc(F)cc3)[nH]2)cc1 (stereo not shown) [SB 203580]
- effect on self-renewal and differentiation of ES cells ([1]; 1 μM SB203580, serum- and feeder-free conditions): did not show any effect

Molecule: COc1cccc(-c2cc(=O)c3ccccc3o2)c1N [PD98059]
- colony formation at low cell density (parental ES cells): could never support the colony formation
- growth speed of parental cell line with inhibitor compared with Bcl-2 ES cells ([1]; 12.5 μM PD98059, serum- and feeder-free (FIG. 5B)): somewhat faster
- differentiated cells which appeared during culture ([1]; parental ES cell line, 12.5 μM PD98059, serum- and feeder-free, 14 days (FIG. 5A)): dramatically reduced
- continuous growth in serum- and feeder-free conditions in the presence of LIF without Bcl-2 ([1]; parental ES cells, 12.5 μM PD98059, crisis upon continued passaging (FIG. 5B)): supported the continuous growth

B1: BMP: bone morphogenic protein; BMP4 used for stimulation of ES cells (protein, UniProt P12644 293-408, looked up)
Bone morphogenetic protein 4: SPKHHSQRARKKNKNCRRHSLYVDFSDVGWNDWIVAPPGYQAFYCHGDCPFPLADHLNSTNHAIVQTLVNSVNSSIPKACCVPTELSAISMLYLDEYDKVVLKNYQEMVVEGCGCR
- expression of Bcl-2, Bcl-xL, Mcl-1 anti-apoptotic proteins [2]: neither Bcl-2, Bcl-xL, or Mcl-1 anti-apoptotic proteins are up-regulated
- viability of the parental cell line [3]: did not improve viability

Reference: patent US7641897B2, “Feeder layer and serum independent embryonic stem cells” (The Board of Trustees of the Leland Stanford Junior …, priority 2004, dated 2010)
